Test results reported in patent US8338624B2, “Isoflavone derivatives and uses thereof” (Yeda Research and Development Co., Ltd., priority 2007, dated 2012).

Columns and labels:
MLS ovarian xenografts = MLS ovarian xenografts in nude mice; type: in vivo; details: 9 iv 400 μg/mouse every other day
Source text: Female CD1 nude mice (8-week old, ˜30 g) were housed and handled with free access to food and water in the animal facility according to the guidelines (1996) of the Institutional Animal Care and Use Committee of the Weizmann Institute of Science, Rehovot, Israel.
Thirty female nude mice (8 weeks old) were inoculated sub-cutaneously (sc) with MLS ovarian carcinoma cells (1.5×10^6/mouse). Ten days later, when the tumors were palpable, the mice were randomly divided into 3 groups (8-10 mice/group). The mice in each group were iv injected every other day either with a vehicle (Neowater, a solubilization enhancer, 0.1 ml), daunomycin dissolved in Neowater (200 μg/mouse in 0.1 ml vehicle, total dose during treatment 1 mg/mouse), or compound 9 dissolved in Neowater (400 μg/mouse in 0.1 ml vehicle, total dose during treatment 2 mg/mouse). During treatment, body weight was recorded to monitor toxicity of the treatment, and the tumors were measured with an external caliper. Tumor volume was calculated using the formula length×width×height×π/6. Statistical significance was assessed using student's t test, and differences were considered significant at p<0.05.

[1] = test system: human prostate C4-2B cancer cells; assay: DNA synthesis by [3H]-thymidine incorporation, C4-2B cells; type: cell-based
Description: Cells were cultured in MEM supplemented with 10% FCS and antibiotics. Cells were grown to subconfluence and then treated with various hormones or agents as described by Somjen et al. (Somjen et al., 1998). The cells were characterized in terms of expression of mRNAs for estrogen […] by real time PCR, and the results are summarized in Table 1. N87, 320DM and H295R cells expressed mRNAs for both ERs. The ratio of ERα to ERβ was 1:8.5, 1:30 and 1:1.8 in N87, 320DM and H295R cells, respectively. Ovarian A2780 and prostate C4-24 cells expressed mainly mRNA for ERβ, and the ratio of ERβ to ERα was 300:1 and 70:1, respectively. MLS ovarian cells expressed mRNA only for ERβ. The ratio of ERα to ERβ in T47D cells has been reported to be 9:1.
[^3H]-Thymidine incorporation into DNA was used for the assessment of the various effects (proliferative or inhibitory) of various isoflavones, isoflavone derivatives and known cytotoxic drugs in the above-mentioned cells. Cells were grown until subconfluence using conditions described in Somjen et al. (Somjen et al., 1998) and then treated with various agents for 24 or 48 h as indicated. At the end of incubation, [^3H]-thymidine was added for two hours. Cells were then treated with 10% ice-cold trichloroacetic (TCA) for 5 min and washed twice with 5% TCA and then with cold ethanol. The cellular layer was dissolved in 0.3 ml of 0.3 M NaOH, aliquots were taken for counting radioactivity, and [^3H]-thymidine incorporation into DNA was calculated.

CC(C)(C)OC(=O)NCCCCCCNC(=O)COc1ccc2c(=O)c(-c3ccc(O)cc3)coc2c1 [Compound 9]
weight reduction or death of treated mice (MLS ovarian xenografts): No weight reduction or death | weight reduction or death of treated mice (MLS ovarian xenografts; listed as t-Boc daidzein derivative): did not cause death or weight loss | inhibition at 0.03 µM ([1]; Homo sapiens, at 30 nM): 30% | inhibition at 0.3 µM ([1]; Homo sapiens, at 300 nM): ~50% | DNA synthesis, ratio experimental/control (E/C) ([1]; compound at 0.3 μM): 0.28 ± 0.2
